Counter-ions that a name gives are not always drawn.
Tested on: AAD12 Soybean (GLXMA)
Assay: Field crop tolerance trials (% visual injury, chlorosis, growth inhibition)
Protocol: These trials were conducted under field conditions in multiple states in the United States, including but not limited to Arkansas, Illinois, Indiana, Minnesota, Mississippi, Nebraska, Ohio, Oklahoma, Texas, South Carolina and South Dakota. […] Treatments were applied with small plot backpack sprayers, using pressurized air or carbon dioxide (CO2) as propellant. Pressure varied from 22-50 pounds per square inch (psi), with spray tips typically of a Flat Fan type applying water diluent at 15 gallons per acre (GPA). Boom sizes varied from 6.3-10 ft in width. Treatments were applied to soybean, cotton, corn or fallow crop land. Weed sizes varied, but all treatments were applied as post-emergence treatments to weeds from 2 leaf to 2 tiller growth stages varying from 2 to 15 inches in height. The weed spectrum included, but was not limited to, Amaranthus palmeri S. Wats. (Palmer amaranth, AMAPA), Conyza canadensis (L.) Cronq. (horseweed, ERICA), Salsola tragus L. (Russian thistle, SASKR) and Sesbania exaltata (hemp sesbania, SEBEX).
2,4-D- and glufosinate-tolerant soybeans, corn and cotton and optionally a glyphosate trait in a breeding (CP4 EPSPS) or a molecular stack (2mEPSPS) were used in all tolerance trials.
The 2,4-D-choline salt formulation was a 456 g ae/L SL. […] All treatments were mixed in water at appropriate formulated product rates to achieve the desired rates as shown based on a unit area of application (hectare). Treatments were rated at 2 to 28 days after application (DAA) as compared to the untreated control plants. The trial sites had naturally occurring populations of weeds. The treated plots and control plots were rated blind at various intervals after application. […]

Row | Compound | Mean % crop growth inhibition (7DAA, 1084 g ae/ha) [%] | Mean % crop growth inhibition (15DAA, 1084 g ae/ha) [%] | Mean % crop growth inhibition (7DAA, 2130 g ae/ha) [%] | Mean % crop growth inhibition (14DAA, 2130 g ae/ha) [%] | Mean % crop growth inhibition (15DAA, 2130 g ae/ha) [%]
1 | CP(=O)(O)CCC(N)C(=O)O (centres unmarked) [Glufosinate-ammonium, ammonium (3-amino-3-carboxypropyl)(methyl)phosphinate] | 14.0 | 9.8 |  |  | 
2 | O=C(O)COc1ccc(Cl)cc1Cl [2,4-D-Choline salt, 2-hydroxy-N,N,N-trimethylethanaminium 2-(2,4-dichlorophenoxy)acetate] |  |  | 1 | 0 | 0

— patent US20150157023A1, “S[…] CONTROL FROM COMBINATIONS OF 2,4-D-CHOLINE AND GLUFOSINATE” (Dow AgroSciences LLC, priority 2013, published 2015)
